From patent publication US20240148821A1, “PHARMACEUTICAL USE OF CYCLIC PEPTIDE COMPOUND” (CHUGAI SEIYAKU KABUSHIKI KAISHA, priority 2021, published 2024)
Numbered stars: 1 amine (or outer) side, 2 acyl side, 3 side chain; on linkers, the order of the positions; unused ones are H or OH. Bridge positions count the residues as written; N and C are the ends. Square brackets hold non-standard residues; d marks the D form. Peptide text beside a SMILES is read from it. * marks the point of attachment. hPhe(3-Cl-4-CF3) = N[C@@H](CCc1ccc(C(F)(F)F)c(Cl)c1)C(=O)O; hPhe(3-F,4-CF3) = N[C@@H](CCc1ccc(C(F)(F)F)c(F)c1)C(=O)O; hPhe(4-CF3) = N[C@@H](CCc1ccc(C(F)(F)F)cc1)C(=O)O; NMePhe(4-Cl) = CN[C@@H](Cc1ccc(Cl)cc1)C(=O)O; NMedβ3hAla = C[C@H](CC(=O)[*:2])N(C)[*:1]; NMeGly(cPent) = CN[C@H](C(=O)O)C1CCCC1; NMeCha = CN[C@@H](CC1CCCCC1)C(=O)O; NMeF = CN[C@@H](Cc1ccccc1)C(=O)O; NMeI = CC[C@H](C)[C@H](NC)C(=O)O; Gly(cBu) = N[C@H](C(=O)O)C1CCC1; NMeD = CN[C@@H](CC(=O)O)C(=O)O; NMeL = CN[C@@H](CC(C)C)C(=O)O; NMeV = CN[C@H](C(=O)O)C(C)C; d(β3hA) = C[C@@H](N)CC(=O)O; NMeA = CN[C@@H](C)C(=O)O; NMeAib = CNC(C)(C)C(=O)O; Nle = CCCC[C@H](N)C(=O)O; Piperidide = C1CCN(*)CC1; dNMeA = CN[C@H](C)C(=O)O; Ac5c = NC1(C(=O)O)CCCC1; Aze = O=C(O)[C@@H]1CCN1; Sar = CNCC(=O)O

These molecules were tested against protein-protein interaction between Kras and SOS1 (biotin-tagged human Kras loaded with GDP, His-tagged human SOS1) (Homo sapiens (Human), UniProt P01116, G12D) (assay: Protein-protein interaction inhibition between Kras and SOS1 (KrasG12D-SOS PPI) using AlphaScreen). Settings: AlphaScreen; biotin-tagged human Kras loaded with GDP, His-tagged human SOS1; read-out: KRAS G12D-SOS PPI IC50.
Assay type: biochemical
`CC[C@H](C)[C@@H]1NC(=O)[C@H](CC(C)C)N(C)C(=O)C[C@@H](C(=O)N2CCCCC2)N(C)C(=O)[C@H](C2CCCC2)N(C)C(=O)C2(CCCC2)NC(=O)[C@@H]2CCCN2C(=O)[C@H](CCc2ccc(C(F)(F)F)c(F)c2)NC(=O)CN(C)C(=O)[C@H](CC2CCCCC2)N(C)C(=O)[C@@H]2CCN2C(=O)[C@H](C)N(C)C1=O` [Compound 563] ([NMeL]I[NMeA][Aze][NMeCha][Sar][hPhe(3-F,4-CF3)]P[Ac5c][NMeGly(cPent)][NMeD]-Piperidide; lactam N-11) was tested, and the IC50 was 1.1 nM. In the case of `CCCC[C@@H]1NC(=O)[C@H](CCc2ccc(C(F)(F)F)c(Cl)c2)NC(=O)CN(C)C(=O)[C@H](Cc2ccc(Cl)cc2)N(C)C(=O)CN(C)C(=O)CN(C)C(=O)[C@H]([C@@H](C)CC)NC(=O)[C@H](CC(C)C)N(C)C(=O)C[C@@H](C)N(C)C(=O)[C@H](CC(C)C)NC(=O)[C@H](Cc2ccccc2)N(C)C1=O` [Compound 566] (cyclo(I[Sar][Sar][NMePhe(4-Cl)][Sar][hPhe(3-Cl-4-CF3)][Nle][NMeF]L[NMedβ3hAla][NMeL])), the IC50 is reported as 160 nM. `CC[C@H](C)[C@@H]1NC(=O)[C@H](CC(C)C)N(C)C(=O)C[C@@H](C(=O)N(C)C)NC(=O)[C@H]([C@@H](C)CC)N(C)C(=O)C2(CCCC2)NC(=O)[C@@H]2CCCN2C(=O)[C@H](CCc2ccc(C(F)(F)F)c(Cl)c2)NC(=O)CN(C)C(=O)[C@H](CC2CCCCC2)N(C)C(=O)[C@@H]2CCN2C(=O)[C@H](C)N(C)C1=O` [Compound 568] ([NMeL]I[NMeA][Aze][NMeCha][Sar][hPhe(3-Cl-4-CF3)]P[Ac5c][NMeI]D-NMe2; lactam N-11) showed an IC50 of 8 nM. `CC[C@H](C)[C@@H]1NC(=O)[C@H](CC2CCCCC2)N(C)C(=O)C[C@@H](C(=O)N2CCCCC2)N(C)C(=O)[C@H](C(C)C)N(C)C(=O)C2(CCCC2)NC(=O)[C@@H]2CCCN2C(=O)[C@H](CCc2ccc(C(F)(F)F)c(Cl)c2)NC(=O)CN(C)C(=O)[C@H](CC2CCCCC2)N(C)C(=O)[C@@H]2CCN2C(=O)[C@H](C)N(C)C1=O` [Compound 572] ([NMeCha]I[NMeA][Aze][NMeCha][Sar][hPhe(3-Cl-4-CF3)]P[Ac5c][NMeV][NMeD]-Piperidide; lactam N-11) was tested, and the IC50 was 39 nM. Work on `CC(C)C[C@H]1C(=O)N[C@@H](C2CCC2)C(=O)N(C)[C@@H](C)C(=O)N2CC[C@H]2C(=O)N(C)[C@@H](CC2CCCCC2)C(=O)N(C)CC(=O)N[C@@H](CCc2ccc(C(F)(F)F)c(Cl)c2)C(=O)N2CCC[C@H]2C(=O)NC2(CCCC2)C(=O)N(C)[C@@H](C(C)C)C(=O)N[C@H](C)CC(=O)N1C` [Compound 580] (cyclo([Ac5c][NMeV][d(β3hA)][NMeL][Gly(cBu)][NMeA][Aze][NMeCha][Sar][hPhe(3-Cl-4-CF3)]P)) yielded an IC50 of 66 nM. `CC[C@H](C)[C@@H]1NC(=O)[C@H](CC2CCCCC2)N(C)C(=O)C[C@@H](C)NC(=O)[C@H](CC(C)C)N(C)C(=O)C2(CCCC2)NC(=O)[C@H](CC(C)C)N(C)C(=O)[C@H](CCc2ccc(C(F)(F)F)cc2)NC(=O)CN(C)C(=O)[C@H](Cc2ccc(Cl)cc2)N(C)C(=O)CN(C)C(=O)CN(C)C1=O` [Compound 583] (cyclo([Ac5c][NMeL][d(β3hA)][NMeCha]I[Sar][Sar][NMePhe(4-Cl)][Sar][hPhe(4-CF3)][NMeL])) was tested, and the IC50 was 370 nM. Molecule `CC[C@H](C)[C@@H]1NC(=O)[C@H](C)N(C)C(=O)C[C@@H](C)NC(=O)[C@H](CC(C)C)N(C)C(=O)[C@H](C(C)C)N(C)C(=O)[C@H](CC(C)C)N(C)C(=O)[C@H](CCc2ccc(C(F)(F)F)cc2)NC(=O)CN(C)C(=O)[C@H](Cc2ccc(Cl)cc2)N(C)C(=O)CN(C)C(=O)CN(C)C1=O` [Compound 588] (cyclo(I[Sar][Sar][NMePhe(4-Cl)][Sar][hPhe(4-CF3)][NMeL][NMeV][NMeL][d(β3hA)][NMeA])) has an IC50 of 360 nM. `CC[C@H](C)[C@@H]1NC(=O)[C@H](CC2CCCCC2)N(C)C(=O)C[C@@H](C)N(C)C(=O)[C@H](CC(C)C)NC(=O)C(C)(C)N(C)C(=O)[C@H](CC(C)C)NC(=O)[C@H](CCc2ccc(C(F)(F)F)cc2)NC(=O)CN(C)C(=O)[C@H](Cc2ccc(Cl)cc2)N(C)C(=O)CN(C)C(=O)CN(C)C1=O` [Compound 595] (cyclo(I[Sar][Sar][NMePhe(4-Cl)][Sar][hPhe(4-CF3)]L[NMeAib]L[NMedβ3hAla][NMeCha])) showed an IC50 of 290 nM. With `CC[C@H](C)[C@@H]1NC(=O)[C@H](CC(C)C)N(C)C(=O)C[C@@H](C(=O)N2CCCCC2)N(C)C(=O)[C@H](C(C)C)N(C)C(=O)C2(CCCC2)NC(=O)[C@@H]2CCCN2C(=O)[C@H](CCc2ccc(C(F)(F)F)c(F)c2)NC(=O)CN(C)C(=O)[C@H](CC2CCCCC2)N(C)C(=O)[C@@H]2CCN2C(=O)CN(C)C1=O` [Compound 599] ([NMeL]I[Sar][Aze][NMeCha][Sar][hPhe(3-F,4-CF3)]P[Ac5c][NMeV][NMeD]-Piperidide; lactam N-11) the IC50 was 12 nM. Work on `CC[C@H](C)[C@@H]1NC(=O)[C@H](C)N(C)C(=O)C[C@@H](C)NC(=O)[C@H](C(C)C)N(C)C(=O)C2(CCCC2)NC(=O)[C@@H]2CCCN2C(=O)[C@H](CCc2ccc(C(F)(F)F)c(Cl)c2)NC(=O)[C@@H](C)N(C)C(=O)[C@H](CC2CCCCC2)N(C)C(=O)[C@@H]2CCN2C(=O)CN(C)C1=O` [Compound 601] (cyclo([Ac5c][NMeV][d(β3hA)][NMeA]I[Sar][Aze][NMeCha][dNMeA][hPhe(3-Cl-4-CF3)]P)) yielded an IC50 of 87 nM.
